Here are results for 16 compounds from ChEMBL document CHEMBL1139020, “Aryl O- and S-galactosides and lactosides as specific inhibitors of human galectins-1 and -3: role of electrostatic potential at O-3” (Bioorg Med Chem Lett, 2006).

Bounds are passed on as bounds.

The target of assay [1] is Galectin-3 (Homo sapiens) (UniProt P17931). In words: Inhibition of Galectin3.
The target in assay [2] is Galectin-1 (Homo sapiens) (UniProt P09382). In words: Inhibition of Galectin1.
Sequence of Galectin-1 (Homo sapiens) (P09382 whole entry): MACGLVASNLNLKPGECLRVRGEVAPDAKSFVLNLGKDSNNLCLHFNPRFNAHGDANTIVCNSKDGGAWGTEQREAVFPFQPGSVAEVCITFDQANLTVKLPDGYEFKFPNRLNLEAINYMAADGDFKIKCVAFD

Sequence of Galectin-3 (Homo sapiens) (P17931 whole entry): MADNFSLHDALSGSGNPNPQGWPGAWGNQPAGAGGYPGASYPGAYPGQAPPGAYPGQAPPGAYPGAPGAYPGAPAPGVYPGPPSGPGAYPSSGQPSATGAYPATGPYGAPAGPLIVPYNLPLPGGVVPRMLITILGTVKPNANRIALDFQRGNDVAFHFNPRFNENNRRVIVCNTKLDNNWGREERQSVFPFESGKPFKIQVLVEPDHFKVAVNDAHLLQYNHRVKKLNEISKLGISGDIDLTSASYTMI

For `COc1ccc(S(=O)(=O)[C@@H]2O[C@H](CO)[C@H](O)[C@H](O)[C@H]2O)cc1`, the Activity in assay [1] and in assay [2] was more than 5 mM throughout.
For `O=S(=O)(c1ccc(Br)cc1)[C@@H]1O[C@H](CO)[C@@H](O[C@@H]2O[C@H](CO)[C@H](O)[C@H](O)[C@H]2O)[C@H](O)[C@H]1O`, the Activity in assay [1] and in assay [2] was 0.313 mM in each case.
Consider `CC(=O)OC[C@H]1O[C@@H](Sc2ccc(Br)cc2)[C@H](OC(C)=O)[C@@H](OC(C)=O)[C@@H]1O[C@@H]1O[C@H](CO)[C@H](O)[C@H](O)[C@H]1O`, for which the Activity in assay [1] and in assay [2] was 0.313 mM throughout.
For the compound `CC(=O)OC[C@H]1O[C@@H](Oc2ccc([N+](=O)[O-])cc2)[C@H](OC(C)=O)[C@@H](OC(C)=O)[C@@H]1O[C@@H]1O[C@H](CO)[C@H](O)[C@H](O)[C@H]1O`, the Activity in assay [1] worked out at 0.625 mM; in assay [2], 0.313 mM.
In the same order, the values of `O=S(=O)(c1ccc2ccccc2c1)[C@@H]1O[C@H](CO)[C@@H](O[C@@H]2O[C@H](CO)[C@H](O)[C@H](O)[C@H]2O)[C@H](O)[C@H]1O` are 0.313 mM and 0.04 mM.
Regarding `COc1ccc(S[C@@H]2O[C@H](COC(C)=O)[C@@H](O[C@@H]3O[C@H](CO)[C@H](O)[C@H](O)[C@H]3O)[C@H](OC(C)=O)[C@H]2OC(C)=O)cc1`, the Activity in assay [1] and in assay [2] was 0.313 mM throughout.
`CC(=O)OC[C@H]1O[C@@H](Sc2ccc([N+](=O)[O-])cc2)[C@H](OC(C)=O)[C@@H](OC(C)=O)[C@H]1O`: the results for the Activity in assay [1] and in assay [2] were more than 5 mM and 2.5 mM, respectively.
Take `CC(=O)OC[C@H]1O[C@@H](Oc2ccccc2[N+](=O)[O-])[C@H](OC(C)=O)[C@@H](OC(C)=O)[C@@H]1O[C@@H]1O[C@H](CO)[C@H](O)[C@H](O)[C@H]1O`: the figures for the Activity in assay [1] and in assay [2] were 0.625 mM and 0.08 mM, respectively.
The matching figures for `CC(=O)OC[C@H]1O[C@@H](Sc2ccc3ccccc3c2)[C@H](OC(C)=O)[C@@H](OC(C)=O)[C@@H]1O[C@@H]1O[C@H](CO)[C@H](O)[C@H](O)[C@H]1O`: 0.313 mM and 0.313 mM.
Regarding `CC(=O)OC[C@H]1O[C@@H](Sc2ccc([N+](=O)[O-])cc2)[C@H](OC(C)=O)[C@@H](OC(C)=O)[C@@H]1O[C@@H]1O[C@H](CO)[C@H](O)[C@H](O)[C@H]1O`, the Activity in assay [1] and in assay [2] was 0.313 mM in each case.
Take `COc1ccc(S[C@@H]2O[C@H](COC(C)=O)[C@H](O)[C@H](OC(C)=O)[C@H]2OC(C)=O)cc1`: the Activity is 2.5 mM in assay [1] and more than 5 mM in assay [2].
On to LACTOSE, ANHYDROUS, for which the Activity in assay [1] and in assay [2] was 0.8 mM each time.
Regarding `CC(=O)OC[C@H]1O[C@@H](Oc2ccc([N+](=O)[O-])cc2)[C@H](OC(C)=O)[C@@H](OC(C)=O)[C@H]1O`, the Activity in assay [1] and in assay [2] was 10 mM each time.
With `O=C[C@H](O)[C@@H](O)[C@@H](O)[C@H](O)CO`, the Activity in assay [1] and in assay [2] was 50 mM in each case.
`CC(=O)OC[C@H]1O[C@@H](Oc2ccccc2[N+](=O)[O-])[C@H](OC(C)=O)[C@@H](OC(C)=O)[C@H]1O`: the Activity in assay [1] and in assay [2] was more than 5 mM throughout.
In the case of `CC(=O)OC[C@H]1O[C@@H](Sc2ccc3ccccc3c2)[C@H](OC(C)=O)[C@@H](OC(C)=O)[C@H]1O`, the Activity in assay [1] and in assay [2] was 5 mM in each case.
